The values below come from patent publication US20070154990A1, “Assays for identifying inhibitors of fatty acid amide hydrolase” (priority 2005, published 2007).

For orientation: IC50 means the concentration that inhibits the measured activity by half. What is called Km is the concentration of substrate that gives half-maximal velocity. What is called Kd is a measure of binding affinity in units of concentration.

Numbering of substitutions follows the chain as printed. Where two headings read alike, the source gives them in different places.

The target of data set [1] is T1, human FAAH (Homo sapiens, UniProt O00519).
T1 construct: His6; made in house; host or cells: CHO cells, stably transfected; microsomal fraction used
T1 sequence (O00519 1-579): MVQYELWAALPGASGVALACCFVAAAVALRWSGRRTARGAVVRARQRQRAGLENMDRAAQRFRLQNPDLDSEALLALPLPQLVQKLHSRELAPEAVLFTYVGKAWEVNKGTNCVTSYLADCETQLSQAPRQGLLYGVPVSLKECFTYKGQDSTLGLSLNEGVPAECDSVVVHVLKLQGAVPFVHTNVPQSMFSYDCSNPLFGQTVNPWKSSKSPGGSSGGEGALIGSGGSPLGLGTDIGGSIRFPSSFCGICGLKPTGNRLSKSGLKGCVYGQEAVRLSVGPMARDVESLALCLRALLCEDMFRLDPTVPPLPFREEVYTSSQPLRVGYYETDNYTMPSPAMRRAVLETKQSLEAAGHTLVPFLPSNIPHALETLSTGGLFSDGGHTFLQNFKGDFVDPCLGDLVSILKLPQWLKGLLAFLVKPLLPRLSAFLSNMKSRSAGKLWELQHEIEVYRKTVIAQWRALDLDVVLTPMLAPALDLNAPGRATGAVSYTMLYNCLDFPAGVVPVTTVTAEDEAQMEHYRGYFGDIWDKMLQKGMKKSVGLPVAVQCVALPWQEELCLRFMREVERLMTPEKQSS
Description: [3H]-anandamide (AEA) hydrolysis by FAAH microsomes. The format is biochemical. The procedure: 0.5 μg of human FAAH microsomes were incubated with 1 μM [^3H]-AEA substrate and indicated concentrations of MAEA in assay buffer at room temperature for 2 hours. Released [^3H]-ethanolamine was extracted by chloroform/methanol and counted.
Panel (B) Effect of MAEA on the kinetics of AEA hydrolysis by FAAH-containing microsomes. 0.5 μg of the microsomes comprising FAAH were incubated with the indicated [^3H]-AEA concentrations for 30 minutes with or without 10 μM of MAEA. Released [^3H]-ethanolamine was measured in a scintillation counter.
Microsomes (0.5 μg/assay) prepared from CHO cells expressing human FAAH, were incubated with the indicated concentrations of anandamide (ethanolamine 1-[^3H]) for 30 min at 25° C. in 50 mM HEPES, pH 7.4, 1 mM EDTA and 0.1% BSA. The reaction was terminated by the addition of 2 volumes of chloroform/methanol (1:1, v/v). The samples were vortexed and centrifuged at 1000 g for 3 minutes. The aqueous phase, containing [^3H]-ethanolamine, was collected and measured by liquid scintillation counting. Results are presented as the mean±S.E. of triplicate measurements from at least two independent experiments. The observed rate constants (apparent Km) were calculated using GraphPad Prism 3.02, based on a Michaelis-Menten (one site binding hyperbola) equation Y=BmaxX/[Km+X].
The AEA hydrolysis assays were performed according to the protocols described in Example 1. 0.5 μg of FAAH-containing microsomes per assay were incubated with 8 different concentrations (in a range from 1 μM to 10 μM) of compound in the presence of 1 μM […] in 50 mM HEPES, pH 7.5, 1 mM EDTA, 0.1% BSA at room temperature for 2 hours. ^3H-ethanolamine released from AEA hydrolysis was measured by liquid scintillation counting. Results were analyzed using a sigmoidal dose-response equation by GraphPad Prism 3.02. Numerical results are the mean of triplicate measurements from at least two independent experiments.

Data set [2] addresses T1, human FAAH. Description: FAAH SPA binding assay (displacement of [3H]-MAEA from FAAH-containing microsomes). The note with it: for IC50: 3 hours room temperature. The procedure: FIG. 3. One embodiment of a FAAH SPA assay. […] The radioactivity was counted on a TopCount™ for one minute per sample. Each point shown is the mean±SD of triplicates from at least two independent experiments.
FIG. 7. Inhibition of the binding of [^3H]-MAEA to FAAH-containing microsomes by FAAH inhibitors in SPA. The assay was carried out by incubating 5 μg of FAAH microsomes with 100 nM [^3H]-MAEA and 0.5 mg of WGA beads in 50 mM HEPES, 1 mM EDTA, pH 7.4, 0.1% BSA, with inhibitors in a 200 μL total reaction volume, at room temperature for 3 hours. The final concentration of DMSO in the assay was 0.5%. IC50 values were calculated by fitting the curve to a non-linear regression equation. Each point is the mean±SD of triplicate data from at least two independent experiments.
The SPA assay consisted of 100 nM [^3H]-MAEA (60 Ci/mmol), […] FAAH microsomes and 0.5 mg PVT-WGA beads in buffer (50 mM HEPES, pH 7.4, 1 mM EDTA and 0.1% BSA). The assays were performed in 96 well plates with a final volume of 200 μL. Components were added to the assay plates, which were agitated on a plate shaker for 3-4 hours at room temperature. The assays were then counted on a TopCount NXT (PerkinElmer, Boston, Mass.) for one minute per well. Results presented are the mean±S. E. of triplicate measurements from at least two independent experiments. The IC50 values were calculated using the GraphPad Prism 3.02 program, based on a sigmoidal dose-response equation. The screening window coefficient (Z′-factor) was calculated according to the following equation as previous described (See Zhang, J. H., T. D. Chung, and K. R. Oldenburg, A simple statistical parameter for use in evaluation and validation of high throughput screening assays, J Biomol Screen, 1999, 4: 67-73): Z=1−(3σc++3σc−)/|μc+−μc−| where, σc+ and σc− are standard deviations of positive and negative controls and μc+ and μc− are means of positive and negative controls respectively.
Assays were performed by incubating 0.5 mg of PVT-WGA beads, 100 nM [3H]-MAEA, and 5 μg of FAAH-containing microsomes. Assays were incubated in the wells of 96-well plates.
(In a radioligand displacement assay an active substance lowers the binding of a labelled ligand.)

The target in the next data set is T2, inactive FAAH-S241A (Homo sapiens, UniProt O00519, S241A).
T2 construct: His6; made in house; host or cells: CHO cells, stably transfected; microsomal fraction used
T2 sequence (O00519 1-579 S241A): T1 sequence (O00519 1-579) with S241A
Description: SPA binding of [3H]-MAEA to microsomes with inactive FAAH-S241A mutant. The note with it: 5 μg microsomes containing inactive FAAH-S241A. The procedure: (§1) FIG. 4. […] The relative activity of FAAH-containing microsomes or those prepared from cells expressing FAAH-S241A or vector control was measured by increasing the microsomal protein concentration ranging from 0-10 μg/assay. 100 nM of [^3H]-MAEA and 0.5 mg of WGA SPA beads were incubated with indicated concentrations of microsomes at 25° C. for 3 hours. Radioactivity was measured in a TopCount™. The SPA signal (CPM) was plotted against amount of microsomal protein in the assay. Each point is the mean±SD of triplicate data from at least two independent experiments.
(§2) Cells were collected by centrifugation at 2000 g for 10 minutes at 4° C. in a Sorvall high-speed centrifuge. The cell pellet was then washed 3 times with PBS and resuspended in buffer containing 50 mM HEPES, pH 7.4, 1 mM EDTA, 1 μM pepstatin, 100 μM leupeptin, 0.1 mg/mL aprotinin. The cells were sonicated 5 times for 10 seconds at 15-second intervals and the cell lysate was further centrifuged at 12000 g for 20 minutes at 4° C. The supernatant was centrifuged at 100,000 g for 30 minutes in a SW28 rotor in a Beckman Optima LE-80K centrifuge. The pellet obtained was the microsomal fraction, which was resuspended in ice-cold buffer. Protein concentration was measured by the BCA method (Pierce) and the microsomal suspension adjusted to 1 mg/mL and stored in aliquots at −80° C. until use. […]

In another data set the target is T3, FAAH microsomes (Homo sapiens, UniProt O00519).
T3 construct: His6; made in house; host or cells: CHO cells, stably transfected; microsomal fraction used
T3 sequence (O00519 1-579): T1 sequence (O00519 1-579)
Description: Hydrolysis of [3H]-MAEA by FAAH microsomes. The data set is classed as biochemical. The note with it: 5 μg FAAH microsomes over 5 hours. An excerpt: R(+)-methanandamide (R-(+)-arachidonyl-1-′-hydroxy-2′-propylamide, MAEA) is an anandamide analog with a methyl group at the 1′-position of the ethanolamido head group. […] The effects of MAEA on FAAH-catalyzed anandamide hydrolysis was also examined using FAAH-containing microsomes.

A short description of data set [3]: SPA binding of [3H]-MAEA to microsomes from CHO cells containing only vector. On the set-up: species or system Chinese hamster. The note with it: 5 μg microsomes from cells containing only vector. The protocol:
as §1, §2

Where [4] appears, read: 0.5 μg FAAH-containing microsomes, 1 μM radiolabelled substrate, room temperature 2 hours, read-out: AEA hydrolysis (IC50).
[5] abbreviates: 5 μg FAAH microsomes, 100 nM [3H]-MAEA, 0.5 mg WGA beads.

Take “Arachidonoyl trifluoromethyl ketone [ATFK]”: the 50% inhibitory concentration (IC50) on human FAAH [1] (setting [4]) turned out to be 10.1 nM; on human FAAH [2] (setting [5]), 87 nM.

As for `CCCCCCCCCCCC(=O)c1nc2ncccc2o1` [CAY-10400], the IC50 at human FAAH [1] (setting [4]) was 2.3 nM; on human FAAH [2] (setting [5]), 3.1 nM.

On to `CCCCC/C=C\C/C=C\C/C=C\C/C=C\CCCC(=O)N[C@H](C)CO` [MAEA, R-(+)-arachidonyl-1-′-hydroxy-2′-propylamide], for which the “specific binding of [3H]-MAEA to microsomes” value is given as 6.5% on inactive FAAH-S241A, 6.1% in data set [3] and 90% on human FAAH [2] (5 μg microsomes containing FAAH). The IC50 on human FAAH [1] (0.5 μg human FAAH microsomes, 1 μM [3H]-AEA, 2 hours, read-out: IC50 of inhibition of FAAH-catalyzed anandamide hydrolysis) was found to be 7400 nM. Besides, at human FAAH [1] (10 μM MAEA), the “mode of inhibition (Lineweaver-Burk plot)” value was “competitive FAAH inhibitor”. Also, the “Vmax of AEA hydrolysis in the presence of the compound” value at human FAAH [1] (MAEA at 10 μM, 30 minutes) was found to be 25.82 nmol/min/mg protein. At human FAAH [1] (MAEA at 10 μM, 30 minutes, read-out: apparent Km for AEA in the presence of the compound), the Km turned out to be 62.3 µM. For the same compound, the “[3H]-MAEA degraded” value at FAAH microsomes is “less than 1.5%”. For the same compound, the Kd at human FAAH [2] (2 μg FAAH microsomes, 0.5 mg PVT-WGA beads, estimated, read-out: Kd of specific binding to FAAH microsomes) was 25000 nM. Also, on human FAAH [2] (5 μg microsomes, 100 nM [3H]-MAEA, 0.5 mg WGA beads), the “total [3H]-MAEA bound to FAAH microsomes” value is given as ~92%.

For the compound `NC(=O)c1cccc(-c2cccc(OC(=O)NC3CCCCC3)c2)c1` [URB-597], at human FAAH [2] (URB-597 1 μM, 5 μg FAAH microsomes, 100 nM [3H]-MAEA, 160 cpm without inhibitor), the “SPA counts in the presence of inhibitor” value amounted to 1932 cpm. Also, the “effect on the interaction of [3H]-MAEA and the WGA beads” value on human FAAH [2] (same concentration of URB-597 (1 μM), no microsomes) is listed as “no effect”.

As to `CCCCC/C=C\C/C=C\C/C=C\C/C=C\CCCC(=O)NCCO` [AEA, arachidonyl ethanolamide], the Km at human FAAH [1] (FAAH-containing microsomes, without MAEA, read-out: apparent Km for AEA (no inhibitor)) was 9.1 µM.
